Results taken from ChEMBL document CHEMBL3045237, “Synthesis, DNA binding, hemolytic, and anti-cancer assays of curcumin I-based ligands and their ruthenium(III) complexes” (Med Chem Res, 2013).
pIC50: −log10 of the molar value.

Key:
HeLa [1] = test: Growth inhibition of Homo sapiens (human) HeLa cells at 0.005 mg/ml after 24 hr by MTS assay; assay type: functional; conditions: read-out: GI
HepG2 [2] = test: Growth inhibition of Homo sapiens (human) HepG2 cells at 0.5 mg/ml after 24 hr by MTS assay; assay type: functional; conditions: HepG2, 24 h, read-out: GI
HeLa [3] = test: Growth inhibition of Homo sapiens (human) HeLa cells at 0.0005 mg/ml after 24 hr by MTS assay; assay type: functional; conditions: read-out: GI
HeLa [4] = test: Growth inhibition of Homo sapiens (human) HeLa cells at 0.5 mg/ml after 24 hr by MTS assay; assay type: functional; conditions: read-out: GI
[5] = Hemolytic activity against Homo sapiens (human) RBC at 5 ug/ml after 1 hr by spectrophotometric analysis relative to control; assay type: ADME, cell-based, Erythrocyte; conditions: red blood cells (RBC), read-out: Activity
MDA-MB-231 [6] = test: Growth inhibition of Homo sapiens (human) MDA-MB-231 cells at 0.0005 mg/ml after 24 hr by MTS assay; assay type: functional; conditions: MDA-MB-231, 24 h, read-out: GI
HeLa [7] = test: Growth inhibition of Homo sapiens (human) HeLa cells at 0.05 mg/ml after 24 hr by MTS assay; assay type: functional; conditions: read-out: GI
[8] = Hemolytic activity against Homo sapiens (human) RBC at 20 ug/ml after 1 hr by spectrophotometric analysis relative to control; assay type: ADME, cell-based, Erythrocyte; conditions: red blood cells (RBC), read-out: Activity
HepG2 [9] = test: Growth inhibition of Homo sapiens (human) HepG2 cells at 0.005 mg/ml after 24 hr by MTS assay; assay type: functional; conditions: HepG2, 24 h, read-out: GI
[10] = Hemolytic activity against Homo sapiens (human) RBC at 10 ug/ml after 1 hr by spectrophotometric analysis relative to control; assay type: ADME, cell-based, Erythrocyte; conditions: red blood cells (RBC), read-out: Activity
HeLa [11] = test: Cytotoxicity against Homo sapiens (human) HeLa cells after 24 hr by MTS assay; assay type: functional, cell-based
[12] = Hemolytic activity against Homo sapiens (human) RBC at 100 ug/ml after 1 hr by spectrophotometric analysis relative to control; assay type: ADME, cell-based, Erythrocyte; conditions: red blood cells (RBC), read-out: Activity
[13] = Hemolytic activity against Homo sapiens (human) RBC at 50 ug/ml after 1 hr by spectrophotometric analysis relative to control; assay type: cell-based, Erythrocyte; conditions: red blood cells (RBC), read-out: Activity
MDA-MB-231 [14] = test: Growth inhibition of Homo sapiens (human) MDA-MB-231 cells at 0.05 mg/ml after 24 hr by MTS assay; assay type: functional; conditions: MDA-MB-231, 24 h, read-out: GI
MDA-MB-231 [15] = test: Growth inhibition of Homo sapiens (human) MDA-MB-231 cells at 0.005 mg/ml after 24 hr by MTS assay; assay type: functional; conditions: MDA-MB-231, 24 h, read-out: GI
MDA-MB-231 [16] = test: Growth inhibition of Homo sapiens (human) MDA-MB-231 cells at 0.5 mg/ml after 24 hr by MTS assay; assay type: functional; conditions: MDA-MB-231, 24 h, read-out: GI
HT-29 = test: Growth inhibition of Homo sapiens (human) HT-29 cells at 0.5 mg/ml after 24 hr by MTS assay; assay type: functional; conditions: HT-29, 24 h, read-out: GI

`COc1cc(/C=C/C(=N\NC(N)=O)C(=Cc2ccc(O)cc2)C(/C=C/c2ccc(O)c(OC)c2)=N/NC(N)=O)ccc1O` gave an inhibition of growth at 5 µg/mL (HeLa [1]) of 33.5%, an inhibition of growth at 500 µg/mL (HepG2 [2]) of 0.74% and an inhibition of growth at 0.5 µg/mL (HeLa [3]) of 30.8%. It also gave an inhibition of growth at 500 µg/mL (HeLa [4]) of 13.8%, a hemolysis at 1 h, 5 ug/ml [5] of 8% and an inhibition of growth at 0.5 µg/mL (MDA-MB-231 [6]) of 21.7%. The inhibition of growth at 50 µg/mL (HeLa [7]) was 35%, the hemolysis at 1 h, 20 ug/ml [8] was 12% and the inhibition of growth at 5 µg/mL (HepG2 [9]) was 0.51%. The hemolysis at 1 h, 10 ug/ml [10] was 10%, the pIC50 (HeLa [11]) was 7.69 and the hemolysis at 1 h, 100 ug/ml [12] was 21%. For the same compound, the hemolysis at 1 h, 50 ug/ml [13] was 18%, the inhibition of growth at 50 µg/mL (MDA-MB-231 [14]) was 7.64% and the inhibition of growth at 5 µg/mL (MDA-MB-231 [15]) was 12.9%.

`COc1cc(/C=C/C(=N\NC(N)=O)C(=Cc2cc(OC)c(O)c(OC)c2)C(/C=C/c2ccc(O)c(OC)c2)=N/NC(N)=O)ccc1O` gave an inhibition of growth at 5 µg/mL (HeLa [1]) of 15.8%, an inhibition of growth at 500 µg/mL (HepG2 [2]) of 48.1% and an inhibition of growth at 0.5 µg/mL (HeLa [3]) of 40.1%. For the same compound, the inhibition of growth at 500 µg/mL (HeLa [4]) was 53.1%, the hemolysis at 1 h, 5 ug/ml [5] was 2% and the inhibition of growth at 0.5 µg/mL (MDA-MB-231 [6]) was 8.79%. For the same compound, the inhibition of growth at 500 µg/mL (MDA-MB-231 [16]) was 33.6%, the inhibition of growth at 50 µg/mL (HeLa [7]) was 28.1% and the hemolysis at 1 h, 20 ug/ml [8] was 3.9%. For the same compound, the hemolysis at 1 h, 10 ug/ml [10] was 4%, the inhibition of growth at 500 µg/mL (HT-29) was 46.5% and the hemolysis at 1 h, 100 ug/ml [12] was 15%. For the same compound, the hemolysis at 1 h, 50 ug/ml [13] was 9%.

Work on `N#Cc1ccc(C(c2ccc(C#N)cc2)n2cncn2)cc1` [LETROZOLE] yielded a hemolysis at 1 h, 5 ug/ml [5] of 22%, a hemolysis at 1 h, 20 ug/ml [8] of 60% and a hemolysis at 1 h, 10 ug/ml [10] of 32%. The hemolysis at 1 h, 100 ug/ml [12] was 98% and the hemolysis at 1 h, 50 ug/ml [13] was 80%.
